Results from ChEMBL document CHEMBL6103626, “Structure-Based Design of New LSD1/EGFRL858R/T790M Dual Inhibitors for Treating EGFR Mutant NSCLC Cancers” (J Med Chem, 2025).

Tests used:
LSD1/CoREST complex [1] = molecular target: T1, LSD1/CoREST complex (Homo sapiens, UniProt O60341); experiment: Non-competitive inhibition of LSD1/CoREST (unknown origin) using H3K4me2 as substrate incubated for 0.5 hrs by ELISA; format: protein-complex assay
[2] = Tmax in Sprague-Dawley rat at 40 mg/kg, po measured for 24 hrs by LC-MS/MS analysis; format: ADME, organism-based; details: in vivo
[3] = AUC (infinity) in Sprague-Dawley rat at 40 mg/kg, po measured for 24 hrs by LC-MS/MS analysis; format: ADME, organism-based; details: in vivo
[4] = MRTlast in Sprague-Dawley rat at 10 mg/kg, iv measured for 24 hrs by LC-MS/MS analysis; format: ADME, organism-based; details: in vivo
[5] = test system: Osimertinib-resistant NCI-H1975 cell; experiment: Antiproliferative activity against human Osimertinib-resistant NCI-H1975 cells measured after 72 hrs by SRB assay
LSD1/CoREST complex [6] = molecular target: T1, LSD1/CoREST complex; experiment: Inhibition of full-length recombinant LSD1 (123 to 852 residues)(unknown origin)/CoREST (305 to 482 residues)(unknown origin) extracted from Escherichia coli using H3K4me2 as substrate preincubated for 5 mins followed by substrate addition measured after 30 mins by HRP/Amplex Red based fluorescence assay; format: protein-complex assay
[7] = Antiproliferative activity against human PC9 Gefitinib-resistant (GR) cells measured after 72 hrs by SRB assay; details: PC9 Gefitinib-resistant (GR) cell
[8] = MRT (infinity) in Sprague-Dawley rat at 10 mg/kg, iv measured for 24 hrs by LC-MS/MS analysis; format: ADME, organism-based; details: in vivo
[9] = AUC (infinity) in Sprague-Dawley rat at 10 mg/kg, iv measured for 24 hrs by LC-MS/MS analysis; format: ADME, organism-based; details: in vivo
A-431 = experiment: Antiproliferative activity against human A-431 cells expressing wild-type EGFR measured after 72 hrs by SRB assay; details: A-431, 72 h
[10] = Clearance in Sprague-Dawley rat at 10 mg/kg, iv measured for 24 hrs by LC-MS/MS analysis; format: ADME, organism-based; details: in vivo
[11] = Half life in Sprague-Dawley rat at 40 mg/kg, po measured for 24 hrs by LC-MS/MS analysis; format: ADME, organism-based; details: in vivo
[12] = AUClast in Sprague-Dawley rat at 10 mg/kg, iv measured for 24 hrs by LC-MS/MS analysis; format: ADME, organism-based; details: in vivo
[13] = MRT (infinity) in Sprague-Dawley rat at 40 mg/kg, po measured for 24 hrs by LC-MS/MS analysis; format: ADME, organism-based; details: in vivo
[14] = Volume of distribution at steady state in Sprague-Dawley rat at 10 mg/kg, iv measured for 24 hrs by LC-MS/MS analysis; format: ADME, organism-based; details: in vivo, read-out: Vdss
[15] = Oral bioavailability in Sprague-Dawley rat at 40 mg/kg measured for 24 hrs by LC-MS/MS analysis; format: ADME, organism-based; details: in vivo
cells = details: Homo sapiens, NCI-H1975, 72 h
[16] = MRTlast in Sprague-Dawley rat at 40 mg/kg, po measured for 24 hrs by LC-MS/MS analysis; format: ADME, organism-based; details: in vivo
NCI-H1975 = experiment: Antitumor activity against human NCI-H1975 cells xenografted in athymic nude BALB/c mouse at 3 mg/kg, po daily for 27 days relative to control; format: functional; details: NCI-H1975, 648 h, time 27 day, read-out: TGI
PC-9 = experiment: Antiproliferative activity against human PC-9 cells expressing EGFR del19 mutant measured after 72 hrs by SRB assay; details: PC-9, 72 h
[17] = Cmax in Sprague-Dawley rat at 40 mg/kg, po measured for 24 hrs by LC-MS/MS analysis; format: ADME, organism-based; details: in vivo
[18] = Toxicity in athymic nude BALB/c mouse xenografted with human NCI-H1975 cells assessed as drug tolerance at 3 mg/kg, po daily for 27 days; format: organism-based; details: in vivo, 648 h, time 27 day
[19] = Toxicity in athymic nude BALB/c mouse xenografted with human NCI-H1975 cells assessed as body weight loss at 3 mg/kg, po daily for 27 days; format: organism-based; details: in vivo, 648 h, time 27 day
[20] = AUClast in Sprague-Dawley rat at 40 mg/kg, po measured for 24 hrs by LC-MS/MS analysis; format: ADME, organism-based; details: in vivo
[21] = Antiproliferative activity against human PC9-OR cells measured after 72 hrs by SRB assay
[22] = Half life in Sprague-Dawley rat at 10 mg/kg, iv measured for 24 hrs by LC-MS/MS analysis; format: ADME, organism-based; details: in vivo
[23] = molecular target: Epidermal growth factor receptor (Homo sapiens, UniProt P00533, L858R/T790M); experiment: Inhibition of EGFR L858R/T790M mutant (unknown origin) using Glu/Tyr as substrate incubated for 1 hr by ELISA
[24] = molecular target: Epidermal growth factor receptor (Homo sapiens, UniProt P00533); experiment: Inhibition of wild-type EGFR (unknown origin) using Glu/Tyr as substrate incubated for 1 hr by ELISA
Chain of Epidermal growth factor receptor (Homo sapiens, UniProt P00533) (P00533 whole entry): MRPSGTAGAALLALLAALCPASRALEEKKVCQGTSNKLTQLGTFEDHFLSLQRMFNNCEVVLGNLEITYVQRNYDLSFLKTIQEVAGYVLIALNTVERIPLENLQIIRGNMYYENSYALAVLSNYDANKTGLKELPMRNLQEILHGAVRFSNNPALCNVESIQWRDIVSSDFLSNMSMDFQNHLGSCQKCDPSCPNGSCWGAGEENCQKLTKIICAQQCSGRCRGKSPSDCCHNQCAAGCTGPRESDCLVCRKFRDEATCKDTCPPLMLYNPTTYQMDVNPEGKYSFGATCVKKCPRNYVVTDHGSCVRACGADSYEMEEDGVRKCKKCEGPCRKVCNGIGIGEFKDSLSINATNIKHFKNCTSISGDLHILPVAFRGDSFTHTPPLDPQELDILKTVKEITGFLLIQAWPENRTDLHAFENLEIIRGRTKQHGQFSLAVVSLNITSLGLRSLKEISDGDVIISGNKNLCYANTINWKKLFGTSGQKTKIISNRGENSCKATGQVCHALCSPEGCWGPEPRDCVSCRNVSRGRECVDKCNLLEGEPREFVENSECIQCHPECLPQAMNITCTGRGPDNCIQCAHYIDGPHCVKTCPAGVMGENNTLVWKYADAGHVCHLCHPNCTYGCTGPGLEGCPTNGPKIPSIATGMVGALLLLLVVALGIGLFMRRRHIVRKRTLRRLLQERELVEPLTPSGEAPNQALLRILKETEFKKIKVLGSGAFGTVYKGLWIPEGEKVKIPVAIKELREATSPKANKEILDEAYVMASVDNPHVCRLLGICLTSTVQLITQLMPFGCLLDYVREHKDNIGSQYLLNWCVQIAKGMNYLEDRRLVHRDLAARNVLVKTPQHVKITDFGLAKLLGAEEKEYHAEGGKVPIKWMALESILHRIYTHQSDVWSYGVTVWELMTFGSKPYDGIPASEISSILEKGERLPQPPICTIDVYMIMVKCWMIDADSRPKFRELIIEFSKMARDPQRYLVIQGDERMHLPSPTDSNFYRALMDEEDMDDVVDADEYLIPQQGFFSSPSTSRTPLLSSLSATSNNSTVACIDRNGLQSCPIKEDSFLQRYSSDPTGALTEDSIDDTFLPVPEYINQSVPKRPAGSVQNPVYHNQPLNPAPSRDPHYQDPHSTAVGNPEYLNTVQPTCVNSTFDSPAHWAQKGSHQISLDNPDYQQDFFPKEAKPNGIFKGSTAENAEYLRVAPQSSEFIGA

Chain of Epidermal growth factor receptor (Homo sapiens, UniProt P00533, L858R/T790M) (P00533 25-1210 T790M/L858R limits assumed): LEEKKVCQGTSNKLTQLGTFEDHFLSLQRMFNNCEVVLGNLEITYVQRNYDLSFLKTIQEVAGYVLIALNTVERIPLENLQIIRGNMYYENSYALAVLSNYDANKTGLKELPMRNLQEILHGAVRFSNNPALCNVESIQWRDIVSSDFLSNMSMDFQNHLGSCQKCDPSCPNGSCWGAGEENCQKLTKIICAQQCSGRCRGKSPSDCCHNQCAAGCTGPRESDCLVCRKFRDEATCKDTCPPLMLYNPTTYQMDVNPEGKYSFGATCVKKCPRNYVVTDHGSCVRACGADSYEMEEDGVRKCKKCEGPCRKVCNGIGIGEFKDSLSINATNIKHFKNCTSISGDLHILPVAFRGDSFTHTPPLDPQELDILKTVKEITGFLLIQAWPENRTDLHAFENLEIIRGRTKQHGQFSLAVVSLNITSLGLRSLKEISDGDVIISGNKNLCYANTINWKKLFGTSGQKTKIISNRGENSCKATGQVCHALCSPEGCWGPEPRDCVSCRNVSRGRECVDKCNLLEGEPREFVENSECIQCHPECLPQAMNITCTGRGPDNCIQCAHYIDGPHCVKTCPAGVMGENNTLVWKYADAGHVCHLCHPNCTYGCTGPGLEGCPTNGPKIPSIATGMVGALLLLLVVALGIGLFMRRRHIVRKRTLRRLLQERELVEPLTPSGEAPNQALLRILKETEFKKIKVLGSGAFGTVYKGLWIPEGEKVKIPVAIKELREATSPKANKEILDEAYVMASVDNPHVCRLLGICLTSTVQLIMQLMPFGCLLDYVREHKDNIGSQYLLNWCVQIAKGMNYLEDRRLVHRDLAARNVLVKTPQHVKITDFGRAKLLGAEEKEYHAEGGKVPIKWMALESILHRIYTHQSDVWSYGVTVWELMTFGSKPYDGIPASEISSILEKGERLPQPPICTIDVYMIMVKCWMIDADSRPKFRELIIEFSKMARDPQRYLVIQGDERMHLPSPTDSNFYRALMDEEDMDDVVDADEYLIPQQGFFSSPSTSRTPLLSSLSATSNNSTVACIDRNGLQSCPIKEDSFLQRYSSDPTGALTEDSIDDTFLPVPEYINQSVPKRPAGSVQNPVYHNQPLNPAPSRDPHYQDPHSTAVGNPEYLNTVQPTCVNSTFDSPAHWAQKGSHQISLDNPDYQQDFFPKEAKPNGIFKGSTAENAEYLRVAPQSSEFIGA

Compound | Ki (LSD1/CoREST complex [1]) [nM] | Tmax [2] [h] | MRT last at 24 h [4] [h] | IC50 [5] [nM] | IC50 (LSD1/CoREST complex [6]) [nM] | IC50 [7] [nM] | MRT inf [8] [h] | AUC(0-inf) [9] [ng·h/mL] | IC50 (A-431) [nM] | clearance [10] [mL/min/kg] | AUC(0-t) at 24 h [12] [ng·h/mL] | Vd [14] [L/kg] | bioavailability [15] [%] | IC50 (cells) [nM] | MRT last at 24 h [16] [h] | inhibition in vivo at 3 mg/kg (NCI-H1975) [%] | IC50 (PC-9) [nM] | Cmax [17] [ng/mL] | Activity [18] | Activity [19] | also measured
[2H]C([2H])([2H])n1cc(-c2ccnc(Nc3cc(NC(=O)C=C)c(N4CC[C@@H](N(C)C)C4)cc3OC)n2)c2ccccc21 | 257 | 5 | 5.08 | 8930 | 600 | 5350 | 6.51 | 4220 | 2460 | 39.8 | 4000 | 15.5 | 65.1 | 1750 | 6.76 | 60.4 | 6810 | 724 | Non-toxic | Non-toxic | AUC(0-inf) [3]: 9720 ng·h/mL; half-life [11]: 6.23 h; MRT inf [13]: 8.14 h; AUC(0-t) at 24 h [20]: 10400 ng·h/mL; IC50 [21]: 6730 nM; half-life [22]: 6.07 h
[2H]C([2H])([2H])n1cc(-c2ccnc(Nc3cc(NC(=O)C=C)c(N4CCC(C)(N)CC4)cc3OC)n2)c2ccccc21 | 2340 | 6 | 7.17 | 1600 | 8000 | 1370 | 16 | 4940 | 290 | 33.8 | 3740 | 32.3 | 59.6 | 70 | 9.37 | 51.3 | 930 | 568 | Non-toxic | Non-toxic | IC50 [23]: 6.8 nM; IC50 [24]: 788 nM; AUC(0-t) at 24 h [20]: 8840 ng·h/mL; IC50 [21]: 850 nM; half-life [22]: 13 h
